Assay results reported in patent publication US5604227A, “Pyridazinedione compounds useful in treating neurological disorders” (Imperial Chemical Industries PLC, priority 1991, dated 1997).
Read-outs that look alike come from different tables or passages of the source.

Assays:
NMDA receptor [1] = conditions: reference antagonists, general statement; cited from earlier work
[2] = biological target: glycine receptor of the NMDA receptor complex; assay: [3H]-glycine binding assay (Test A); set-up: species or system rat (Sprague-Dawley); conditions: [3H]-glycine 20 nM, rat cortex/hippocampus membranes, pH 7.1, 30 min, 4° C.
Excerpt: (§1) The actions of compounds according to the invention as antagonists at the glycine receptor of the NMDA receptor complex can be shown by one or more standard tests such as the [^3 H]-glycine binding assay (Test A), by functional assays in vitro such as tests for measuring glutamate-evoked contractions of the guinea pig ileum (Test B) and/or tests for measuring antagonism of NMDA-induced evoked response in hippocampal slices (Test C), and by tests in vivo such as ischemia induced by carotid occlusion in the gerbil model (Test D).
In the [^3 H]-glycine binding assay, neuronal synaptic membranes are prepared from adult (about 250 g) male Sprague-Dawley rats. Freshly dissected cortices and hippocampi are homogenized in 0.32M sucrose (110 mg/mL). Synaptosomes are isolated by centrifugation (1000 xg, 10 min), the supernatant is pelleted (20,000 xg, 20 min) and resuspended in double-distilled water. The suspension was centrifuged for 20 minutes at 8,000 xg. The resulting […] and bully coat are washed twice (48,000 xg, 10 mins, resuspension in double-deionized water). The final pellet is quickly frozen (dry ice/ethanol bath) under double-deionized water and stored at -70° C.
On the day of the experiment, thawed synaptic membranes are homogenized with a Brinkmann Polytron (tm, Brinkmann Instruments, Westbury, N.Y.) tissue homogenizer in 50 millimolar tris(hydroxymethyl)aminomethane citrate, pH 7.1. The membranes are incubated with 0.04% Sufact-AMPS X100 (tm, Pierce, Rockford, Ill.) in buffer for 20 minutes at 37° C. and washed six times by centrifugation (48,000 xg, 10 min) and resuspended in buffer. The final pellet is homogenized at 200 mg wet weight/mL of the buffer for the binding assay.
For [^3 H]-glycine binding at the N-methyl-D-aspartate receptor, 20 nanomolar [^3 H]-glycine (40-60 Ci/mmol, New England Nuclear, Boston, Mass.) is incubated with the membranes suspended in 50 millimolar tris (hydroxymethyl)aminomethane citrate, pH 7.1 for 30 minutes at 4° C. […] Radioactivity is estimated by liquid scintillation counting. […]

[3] = biological target: glycine receptor of the NMDA receptor complex (Cavia porcellus, UniProt A0A286XML8); assay: glutamate-evoked contractions of the guinea pig ileum (Test B); assay type: cell-based; conditions: 100 micromolar glutamate-evoked contractions, compound 5 min before glutamate
Excerpt: as §1
For glutamate-evoked contractions of the guinea pig ileum, the methodology is as described previously (Luzzi et. al., Br. J. Pharmacol., 95, 1271-1277 (1989)). The longitudinal muscle and associated myenteric plexus are removed and placed in oxygenated modified Krebs-Henseleit solution (118 millimolar NaCl, 4.7 millimolar KCl, 2.5 millimolar CaCl, 1.2 millimolar KH2 PO4, 25 millimolar NaHCO3, and 11 millimolar glucose). Tissues are suspended on glass rods in organ baths under a resting tension of 0.5 g. After an initial depolarization with 80 millimolar potassium ion to remove possible blockade of the NMDA receptor channel complex with magnesium, twitch responses are evoked with 100 micromolar glutamate. Isometric mechanical responses are recorded. Tissues are equilibrated for at least 2 hours prior to addition of compounds.
A dose response curve for the effect of the unknown on the magnitude of the glutamate-evoked contractions is generated. Glutamate-evoked contractions are generated at 20 minute intervals, with the test compound added 5 minutes before the glutamate. The magnitude of the contraction with each dose of the unknown is expressed relative to the control, the third contraction evoked by 100 micromolar glutamate alone in the same tissue bath. The IC50 is obtained from a least-squares regression of a logit-log transformation of the data.
After the last contraction for the dose-response curve, 100 micromolar glycine is added to the bath 10 minutes after the previous addition of glutamate. […]

NMDA receptor [4] = assay: hippocampal slice test (HST), antagonism of NMDA-induced evoked response (Test C); assay type: cell-based, rat (Sprague-Dawley); conditions: 5 μM, 0 Mg++
Excerpt: as §1
The characterization of a compound as a glycine antagonist in the hippocampal slice test (HST) is dependent on (1) the ability of the compound to inhibit NMDA receptor-mediated synaptic transmission in hippocampal slices and (2) the subsequent reversal of these inhibitory effects by D-serine.
The procedure for the HST is as follows. Transverse hippocampal slices are obtained from male Sprague-Dawley rats weighting 80-150 gm. […]
For the electrophysiology part of the experiments, bipolar tungsten stimulating electrodes are positioned in the stratum radiatum of the CA3 cell body region of the hippocampus and a single-barrel glass microelectrode filled with Krebs-Ringer solution is positioned in the CA1 cell body region. Low frequency stimulation is then applied to area CA3 which evokes a primary population spike (PS) recorded from CA1. […]

[5] = tested on: neuronal damage in the hippocampus; assay: gerbil ischemic model, bilateral carotid occlusion (Test D); assay type: in vivo, Mongolian gerbils; conditions: 10 mg/Kg ip, pre- and post-occlusion (e.g. 45 min before and 5 min after)
Excerpt: as §1
When testing in vivo using the gerbil ischemic model, adult female Mongolian gerbils (50-70 g) are anesthetized with 2 to 3 % halothane. The bilateral common carotid arteries at the neck are exposed and occluded with microaneurysm clips. After 10 min (unless specified), the clips are removed and the blood flow through the carotid arteries is restored and the skin is sutured. Test compounds are administered intraperitoneally both pre- and post-occlusion, for example 45 minutes before and 5 minutes after occlusion of the carotid arteries. Sham-operated animals are treated in the same manner except that the arteries are not clamped. Gross behavioral observations along with motor activity are recorded for 2 hr on the first (24 hr) day following the occlusion. After 4 days, subjects are sacrificed (decapitation), brains are removed, fixed, sectioned and stained with hematoxylin/eosin and cresyl violet.
The brain sections are rated for neuronal damage in the hippocampus using the following rating scale:
1=slight damage (up to 25%)--restricted to CA1/subiculum border
2=moderate damage (up to 50%)--obvious damage, restricted to less than half of CA1 field
3=marked damage (up to 75%)--involving greater than half of CA1 field
4=damage extending beyond CA1 field
Sections (7 micron) are evaluated from each brain. […] The average brain damage rating score for each group is recorded, and the damage scores of the drug treated group are compared to the vehicle-treated group using Wilcoxon-Rank Sum test. […]

| Compound | reversal of the inhibition by D-serine (NMDA receptor [1]) | IC50 [2] | IC50 [3] | neuroprotection (relative to sham-operated control) [5] | also measured |
| --- | --- | --- | --- | --- | --- |
| O=C(O)c1cc(O)c2ccc(Cl)cc2n1 [7-chlorokynurenic acid] | reversed by D-serine |  |  |  | inhibition of the secondary PSs (NMDA receptor [1]): inhibit the secondary PSs |
| NC(CCCP(=O)(O)O)C(=O)O (stereo not shown) [APV] | not reversed by D-serine |  |  |  |  |
| O=C(O)C1CN(CCCP(=O)(O)O)CCN1 (stereo not shown) [CPP] | not reversed by D-serine |  |  |  |  |
| O=c1[nH][nH]c(=O)c2c(O)c3ccc(Cl)cc3nc12 [Example 2, 7-Chloro-2,3-dihydro-10-hydroxypyridazino[4,5-b]quinoline-1,4-dione] |  | 240 nM | 2100 nM | Over 70% | antagonism in the hippocampal slice test (inhibition of secondary population spikes) (NMDA receptor [4]): antagonist; reversal of the inhibition by D-serine (NMDA receptor [4]): reversed by D-serine |
| O=c1[nH][nH]c(=O)c2c(O)c3c(Cl)cc(Cl)cc3nc12 [Example 4, 7,9-Dichloro-2,3-dihydro-10-hydroxypyridazino[4,5-b]quinoline-1,4-dione] |  | 80 nM | 2300 nM | Over 70% |  |
| O=c1[nH][nH]c(=O)c2c(O)c3ccc([N+](=O)[O-])cc3nc12 [Example 11, 2,3-Dihydro-10-hydroxy-7-nitropyridazino[4,5-b]quinoline-1,4-dione] |  | 8500 nM | 86000 nM | over 60% |  |
| NC1CCN(O)C1=O (stereo not shown) [HA-966] | reversed by D-serine |  |  |  | inhibition of the secondary PSs (NMDA receptor [1]): inhibit the secondary PSs |
| C[C@]12N[C@H](Cc3ccccc31)c1ccccc12 [MK-801] | not reversed by D-serine |  |  |  |  |
| c1ccc(C2(N3CCCCC3)CCCCC2)cc1 [PCP] | not reversed by D-serine |  |  |  |  |
